Data on 1 compound can be found in publication PMC10094136, “Neurog1-Derived Peptides RMNE1 and DualPep-Shine Penetrate the Skin and Inhibit Melanin Synthesis by Regulating MITF Transcription” (International Journal of Molecular Sciences, 2023).

The subject of one data set is THP-1 cells. The data set can be described thus: TNF-α secretion ELISA in PMA-differentiated THP-1 cells (immunogenicity). Format: cell-based. The conditions noted are these: PMA-differentiated THP-1, up to 100 μM, 24 h. As to the method:
(§1) (A) B16F10 and HaCaT cells were treated with the indicated concentration of DualPep-Shine for 72 h, and relative cell viability was measured using Cell Counting Kit 8 (CCK8) assay. Doxorubicin was used for positive control. (B) Phorbol 12-myristate 13-acetate (PMA)-differentiated THP-1 cells were treated with different concentrations of DualPep-Shine for 24 h. TNF-α from supernatants was measured using the enzyme-linked immunosorbent assay (ELISA). (C) DualPep-Shine was incubated with indicated temperature conditions for 45 days. B16F10 cells were treated with different concentrations for 72 h, and melanin contents were measured at OD 405 nm. The results are presented as mean ± SD, and statistical significance was analyzed with Student’s t-test (NS: not significant, *** p < 0.001).
Background: In an ELISA, binding on a coated surface is turned into a signal by an enzyme label.

Data set [1] deals with B16F10 cells. The data set can be described thus: Localization of penetrated peptide by confocal microscopy. Type of data set: cell-based. The note with it: B16F10, FITC-conjugated peptide, 2 h, Hoechst 33342 nucleus staining. On the procedure:
Figure 3 DualPep-Shine regulates the expression of melanogenic genes and inhibits the promoter activity of MITF-M. (A) B16F10 cells were treated with various concentrations of DualPep-Shine for 72 h. Melanin contents were determined at OD 405 nm. (B) DualPep-Shine was treated with α-MSH for 24 h, and whole-cell lysates were subjected to Western blotting. Indicated antibodies were used to analyze melanogenic proteins. (C) mRNA levels of MITF, Tyr, TRP1, and TRP2 were analyzed using quantitative polymerase chain reaction (qPCR) after treatment with DualPep-Shine for 12 h. The gene expression was normalized with β-actin. (D) FITC-conjugated DualPep-Shine was treated for 2 h on B16F10 cells, and its localization was visualized using confocal microscopy. Hoechst 33342 was used for nucleus staining. Bar = 10 μm. […] The results are presented as mean ± SD, and statistical significance was analyzed with Student’s t-test (** p < 0.01, *** p < 0.001).
B16F10 cells were seeded in a 24-well plate and treated with 2.5 μM of FITC conjugated TAT, RMNE1, or DualPep-Shine for 2 h. […] Penetrated peptides were evaluated via flow cytometry by measuring FITC levels. […] The cells were washed again with PBS five times, mounted on a slide glass using gel/mount solution (Biomeda, Foster City, CA, USA), and the penetrated peptides were visualized using a fluorescence microscope. […]

The subject of a further data set is HaCaT cells. The data set can be described thus: Cell viability CCK-8 assay, HaCaT. Type of data set: cell-based. The conditions noted are these: up to highest concentration, 72 h (legend; method says 24 h), CCK8. As to the method:
as §1
(§2) Cell viability was measured using a CCK-8 assay (Dojindo, Tokyo, Japan). HaCaT and B16F10 cells were cultured in a 96-well plate at a 6 × 10^3 cells/well and incubated in a complete medium at 37 °C with 5% CO2 overnight. Each cell type was treated with different concentrations of peptides for 24 h. After removing the medium, CCK-8 solution was added in a dark room at 37 °C. Absorbance was measured at 450 nm using a microplate reader.
In general terms: Tetrazolium dyes change colour on reduction, which living cells bring about.

Data set [2] can be described thus: Storage stability of peptide, read out as anti-melanin activity in B16F10 cells. Type of data set: physicochemical. The conditions noted are these: peptide stored at −20 °C, 25 °C and 37 °C for 45 days; then B16F10 72 h, melanin at OD 405 nm. On the procedure: as §1
B16F10 cells (1 × 10^5) were seeded in a 24-well plate and incubated for 16 h. The cells were treated with α-MSH (Sigma-Aldrich, Darmstadt, Germany) and peptides for 72 h. The cells were incubated at 37 °C in 5% CO2. […] Then, melanin levels were determined by measuring the absorbance at 405 nm using a microplate reader. […] B16F10 cells were then treated with different concentrations of peptides, and melanin contents were measured to check the stability of DualPep-Shine.

In data set [3] the test system is B16F10 cells. The data set can be described thus: Cell viability CCK-8 assay, B16F10. Format: cell-based. The note with it: B16F10, up to highest concentration, 72 h (legend; method says 24 h), CCK8. As to the method: as §1, §2

Molecules are shown by their SMILES. Where a SMILES comes first, the peptide text is derived from it.

In the case of `C[C@@H](O)[C@H](NC(=O)[C@H](CCCNC(=N)N)NC(=O)CNC(=O)[C@H](CCCNC(=N)N)NC(=O)[C@H](CCCNC(=N)N)NC(=O)[C@H](CCCNC(=N)N)NC(=O)[C@H](CCCNC(=N)N)NC(=O)[C@H](CCCNC(=N)N)NC(=O)[C@H](CCC(=O)O)NC(=O)[C@H](CCC(N)=O)NC(=O)[C@H](CCC(=O)O)NC(=O)[C@@H](N)CC(=O)O)C(=O)N[C@@H](CCCNC(=N)N)C(=O)O` [DualPep-Shine] (H-DEQERRRRRGRTR-OH), the “TNF-α secretion (immunogenicity)” value in the data set on THP-1 cells is on record as “did not induce tumor necrosis factor α (TNF-α) secretion”. In addition, the Intracellular localization entry in the data set with B16F10 cells [1] is reported as “mainly localized in the nucleus”. Also, the Cell viability result in the data set on HaCaT cells and in the data set with B16F10 cells [3] was “not affected” each time. In addition, in data set [2], the “Anti-pigmentation activity after pre-incubation (stability)” value is “maintained”.
